Melting point data for 54 compounds are collected here from US20060128729A1, “Novel bicyclic heterocyclic compounds, process for their preparation and compositions containing them” (priority 2004, published 2006).

Structures are written as SMILES. Counter-ions that a name gives are not always drawn. Where only a bound is given, the exact number is not on record here.

Turning to `CCCc1nn(C)c2c(Nc3ccc(Cl)c(OC)c3)nc(-c3cccs3)nc12.Cl`, the melting point was in the range of 200 to 204 °C.

With `CCCc1nn(C)c2c(Nc3ccc4c(c3)OCO4)nc(-c3cccs3)nc12.Cl`, the melting point fell in the range of 246 to 250 °C.

`COc1cc(Nc2nc(-c3ccccc3)nc3c(C)nn(C)c23)ccc1Cl.Cl` came in with a melting point of 222 to 224 °C.

`Cc1nn(C)c2c(Nc3ccc(O)c(Cl)c3)nc(-c3ccc(F)cc3)nc12.Cl` showed a melting point of 238 to 240 °C.

The compound `CCCc1nn(C)c2c(Nc3ccc(OC)c(F)c3)nc(-c3ccccc3OCC)nc12.Cl` registered a melting point of 194 to 196 °C.

Regarding `CCCc1nn(C)c2c(Nc3ccc(O)c(Cl)c3)nc(-c3ccccc3)nc12.Cl`, the melting point is 180 °C.

For the compound `CCCc1nn(C)c2c(Nc3ccc(Cl)c(OC)c3)nc(-c3ccccc3)nc12.Cl`, the melting point is 228 to 230 °C.

The compound `CCCc1nn(C)c2c(Nc3ccc(F)cc3)nc(-c3ccc(F)cc3)nc12.Cl` gave a melting point of 161 to 164 °C.

As to `COc1cc(Nc2nc(-c3cccs3)nc3c(C)nn(C)c23)ccc1Cl.Cl`, the melting point is over 240 °C.

In turn, `Cc1nn(C)c2c(Nc3ccc(O)c(Cl)c3)nc(-c3cccs3)nc12.Cl` had a melting point of over 240 °C.

`Cc1nn(C)c2c(Nc3cccc(F)c3)nc(-c3ccccc3)nc12.Cl` registered a melting point of 218 to 220 °C.

With `CCCc1nn(C)c2c(Nc3cccc(C(F)(F)F)c3)nc(-c3ccc(F)cc3)nc12.Cl`, the melting point lay within 220 to 222 °C.

The compound `CCCc1nn(C)c2c(Nc3ccc(OC)c(OC)c3)nc(-c3ccc(F)cc3)nc12.Cl` had a melting point of 178 to 181 °C.

`Cc1nn(C)c2c(Nc3ccc(Cl)nc3)nc(-c3ccc(F)cc3)nc12.Cl` registered a melting point of 248 to 250 °C.

Regarding `CC(=O)Nc1cc(Nc2nc(-c3ccc(F)cc3)nc3c(C)nn(C)c23)ccc1O.Cl`, the melting point was 250 to 252 °C.

Consider `Cc1nn(C)c2c(Nc3ccc(C(N)=O)cc3)nc(-c3ccc(F)cc3)nc12.Cl`, for which the melting point lay within 272 to 274 °C.

On to `CCCc1nn(C)c2c(Nc3ccc(O)c(Cl)c3)nc(-c3ccc(F)cc3)nc12.Cl`, for which the melting point is 200 to 202 °C.

As to `CCCc1nn(C)c2c(Nc3ccc(OC)c(F)c3)nc(C(F)(F)F)nc12.Cl`, the melting point was in the range of 136 to 138 °C.

`CCCc1nn(C)c2c(Nc3ccc(Cl)c(OC)c3)nc(-c3ccc(F)cc3)nc12.Cl` registered a melting point of 230 to 232 °C.

For `CCCc1nn(C)c2c(Nc3ccc(O)c(F)c3)nc(-c3ccc(F)cc3)nc12.Cl`, the melting point was 161 to 162 °C.

The compound `CCCc1nn(C)c2c(Oc3ccc(F)cc3)nc(-c3ccccc3)nc12` showed a melting point of 126 to 128 °C.

With `Cc1nn(C)c2cc(-c3ccc(F)cc3)nc(Nc3cccc(C(F)(F)F)c3)c12.Cl`, the melting point was 220 to 222 °C.

In the case of `Cc1nn(C)c2cc(-c3ccc(F)cc3)nc(Nc3ccc(Cl)nc3)c12.Cl`, the melting point fell in the range of 215 to 218 °C.

As for `Cc1nn(C)c2cc(-c3ccc(F)cc3)nc(Nc3ccc(OC(F)(F)F)cc3)c12.Cl`, the melting point lay in the range of 248 to 250 °C.

In turn, `CNS(=O)(=O)c1ccc(Nc2nc(-c3ccc(F)cc3)cc3c2c(C)nn3C)cc1.Cl` registered a melting point of 293 to 295 °C.

As for `Cl.Fc1ccc(-c2nc(Nc3cccc(F)c3)c3cnn(-c4ccccc4)c3n2)cc1`, the melting point is 210 to 213 °C.

`Cl.Fc1ccc(-c2nc(Nc3ccc(OC(F)(F)F)cc3)c3cnn(-c4ccccc4)c3n2)cc1`: the melting point was 220 to 222 °C.

For `CCCc1nn(C)c2c(Nc3ccc(OC)c(Cl)c3)nc(-c3cccs3)nc12.Cl`, the melting point fell in the range of 258 to 260 °C.

In the case of `Cc1nn(C)c2cc(-c3ccc(F)cc3)nc(Nc3ccc(Cl)c(C(F)(F)F)c3)c12.Cl`, the melting point is 223 to 225 °C.

The compound `Cc1nc2cc(Nc3nc(-c4ccccc4)nc4c(C)nn(C)c34)ccc2o1.Cl` yielded a melting point of 272 to 274 °C.

As to `CCCc1nn(C)c2c(Nc3ccc4c(c3)OCO4)nc(-c3cccs3)nc12` (as salt: hydrochloride) [E 52, benzo[1,3]dioxol-5-yl-(1-methyl-3-propyl-5-thiophen-2-yl-1H-pyrazolo[4,3-d]pyrimidin-7-yl)-amine hydrochloride], the melting point lay in the range of 246 to 250 °C.

Turning to `CCCc1nn(C)c2c(N3CCC(O)CC3)nc(-c3ccc(OC)c(OC)c3)nc12` [E 20, 1-[5-(3,4-dimethoxy-phenyl)-1-methyl-3-propyl-1H-pyrazolo[4,3-d]pyrimidin-7-yl]-piperidin-4-ol], the melting point is 142 to 144 °C.

`CCCc1nn(C)c2c(-c3ccc(O)c(C)c3)nc(-c3ccc(OC)c(OC)c3)nc12` [E 53, 4-[5-(3,4-dimethoxy-phenyl)-1-methyl-3-propyl-1H-pyrazolo[4,3-d]pyrimidin-7-yl]-2-methyl-phenol] gave a melting point of 198 to 200 °C.

`CCCc1nn(C)c2c(-c3ccc(O)c(C)c3)nc(-c3ccc(OC)c(O)c3)nc12` [E 54, 4-[5-(3-hydroxy,4-methoxy-phenyl)-1-methyl-3-propyl-1H-pyrazolo[4,3-d]pyrimidin-7-yl]-2-methyl-phenol]: the melting point was in the range of 180 to 182 °C.

As for `CCCc1nn(C)c2c(-c3ccc(O)c(Cl)c3)nc(-c3ccc(F)cc3)nc12` [E 55, 2-chloro-4-[5-(4-fluoro-phenyl)-1-methyl-3-propyl-1H-pyrazolo[4,3-d]pyrimidin-7-yl]-phenol], the melting point was 182 to 184 °C.

With `CCCc1nn(C)c2c(-c3ccc(O)c(C)c3)nc(-c3ccccc3)nc12` [E 57, 2-methyl-4-(1-methyl-5-phenyl-3-propyl-1H-pyrazolo[4,3-d]pyrimidin-7-yl)-phenol], the melting point fell in the range of 204 to 206 °C.

Regarding `CCCc1nn(C)c2c(-c3ccc(OC)c(C)c3)nc(-c3ccc(F)cc3)nc12` [E 58, 5-(4-fluoro-phenyl)-7-(4-methoxy-3-methyl-phenyl)-1-methyl-3-propyl-1H-pyrazolo[4,3-d]pyrimidine], the melting point was 136 to 138 °C.

Regarding `CCCc1nn(C)c2c(-c3ccc(OC)c(F)c3)nc(-c3ccc(F)cc3)nc12` [E 59, 7-(3-fluoro-4-methoxy-phenyl)-5-(4-fluoro-phenyl)-1-methyl-3-propyl-1H-pyrazolo[4,3-d]pyrimidine], the melting point is 174 to 176 °C.

Compound `CCCc1nn(C)c2c(-c3ccc(OC)c(C)c3)nc(-c3ccccc3)nc12` [E 60, 7-(4-methoxy-3-methyl-phenyl)-1-methyl-5-phenyl-3-propyl-1H-pyrazolo[4,3-d]pyrimidine] registered a melting point of 158 to 160 °C.

For `CCCc1nn(C)c2c(-c3ccc(OC)c(F)c3)nc(-c3ccccc3)nc12` [E 61, 7-(3-fluoro-4-methoxy-phenyl)-1-methyl-5-phenyl-3-propyl-1H-pyrazolo[4,3-d]pyrimidine], the melting point lay in the range of 158 to 160 °C.

The compound `CCCc1nn(C)c2c(-c3ccc(SC)cc3)nc(-c3ccc(F)cc3)nc12` [E 62, 5-(4-fluoro-phenyl)-1-methyl-7-(4-methylsulfanyl-phenyl)-3-propyl-1H-pyrazolo[4,3-d]pyrimidine] displayed a melting point of 114 to 116 °C.

Take `CCCc1nn(C)c2c(-c3ccc(C)cc3)nc(-c3ccc(F)cc3)nc12` [E 63, 5-(4-fluoro-phenyl)-1-methyl-3-propyl-7-p-tolyl-1H-pyrazolo[4,3-d]pyrimidine]: the melting point lay within 148 to 150 °C.

Compound `CCCc1nn(C)c2c(-c3ccccc3)nc(-c3ccc(F)cc3)nc12` [E 64, 5-(4-fluoro-phenyl)-1-methyl-7-phenyl-3-propyl-1H-pyrazolo[4,3-d]pyrimidine] displayed a melting point of 115 to 118 °C.

Turning to `Cc1nn(C)c2c(-c3ccc4c(c3)OCO4)nc(-c3ccccc3)nc12` [E 65, 7-benzo[1,3]dioxol-5-yl-1,3-dimethyl-5-phenyl-1H-pyrazolo[4,3-d]pyrimidine], the melting point was in the range of 142 to 144 °C.

Take `Cc1nn(C)c2c(-c3ccccc3)nc(-c3ccc(F)cc3)nc12` [E 66, 5-(4-fluoro-phenyl)-1,3-dimethyl-7-phenyl-1H-pyrazolo[4,3-d]pyrimidine]: the melting point was 150 to 152 °C.

The compound `Cc1nn(C)c2c(-c3cccc(S(C)(=O)=O)c3)nc(-c3ccccc3)nc12` [E 67, 7-(3-methanesulfonyl-phenyl)-1,3-dimethyl-5-phenyl-1H-pyrazolo[4,3-d]pyrimidine] gave a melting point of 210 to 212 °C.

For `Cc1nn(C)c2c(-c3cccc(S(C)(=O)=O)c3)nc(-c3ccc(F)cc3)nc12` [E 68, 5-(4-fluoro-phenyl)-7-(3-methanesulfonyl-phenyl)-1,3-dimethyl-1H-pyrazolo[4,3-d]pyrimidine], the melting point fell in the range of 176 to 178 °C.

`CCCc1nn(C)c2c(-c3ccc(S(C)(=O)=O)cc3)nc(-c3ccc(F)cc3)nc12` [E 69, 5-(4-fluoro-phenyl)-7-(4-methanesulfonyl-phenyl)-1-methyl-3-propyl-1H-pyrazolo[4,3-d]pyrimidine] had a melting point of 208 to 210 °C.

`CCCc1nn(C)c2c(C#Cc3ccccc3)nc(-c3ccc(F)cc3)nc12` [E 70, 5-(4-fluoro-phenyl)-1-methyl-7-phenylethynyl-3-propyl-1H-pyrazolo[4,3-d]pyrimidine] came in with a melting point of 156 to 158 °C.

Take `CCCc1nn(C)c2c(-n3ccc4ccccc43)nc(-c3ccc(F)cc3)nc12` [E 88, 5-(4-fluoro-phenyl)-7-indol-1-yl-1-methyl-3-propyl-1H-pyrazolo[4,3-d]pyrimidine]: the melting point lay within 114 to 116 °C.

As to `CCCc1nn(C)c2c(-n3ccc4cc(Cl)ccc43)nc(-c3ccc(F)cc3)nc12` [E 89], the melting point was in the range of 146 to 148 °C.

Regarding `Cc1nn(C)c2c(-n3ccc4ccccc43)nc(-c3ccccc3)nc12` [E 90, 7-indol-1-yl-1,3-dimethyl-5-phenyl-1H-pyrazolo[4,3-d]pyrimidine], the melting point is 141 to 143 °C.

`Cc1nn(C)c2cc(-c3ccc(F)cc3)nc(-c3cccc(S(C)(=O)=O)c3)c12` [E 93, 6-(4-fluoro-phenyl)-4-(3-methanesulfonyl-phenyl)-1,3-dimethyl-1H-pyrazolo[4,3-c]pyridine]: the melting point was in the range of 186 to 188 °C.

As to `Cc1nn(C)c2cc(-c3ccc(F)cc3)nc(-c3ccc(OC(F)(F)F)cc3)c12` [E 94, 6-(4-fluoro-phenyl)-1,3-dimethyl-4-(4-trifluoromethoxy-phenyl)-1H-pyrazolo[4,3-c]pyridine], the melting point lay in the range of 92 to 94 °C.

What is called melting point is the temperature of the solid-liquid transition.
